Laboratory results published in publication PMC8018242, “AbhemC encoding porphobilinogen deaminase plays an important role in chlorophyll biosynthesis and function in albino Ananas comosus var. bracteatus leaves” (PeerJ, 2021).

Molecular target: T1, AbHEMC (porphobilinogen deaminase, PBGD) (Ananas comosus, UniProt A0A1B2LUE6)
T1 construct: gene hemC; E. coli Rosetta-gami (DE3); about 45 kD on SDS-PAGE
Assay: in vitro PBGD activity assay (method of Lee et al. […])
Format: biochemical
Conditions: recombinant fusion protein; substrate inferred from the named PBGD activity, assay conditions not given

T1 sequence (A0A1B2LUE6 entry or part of it): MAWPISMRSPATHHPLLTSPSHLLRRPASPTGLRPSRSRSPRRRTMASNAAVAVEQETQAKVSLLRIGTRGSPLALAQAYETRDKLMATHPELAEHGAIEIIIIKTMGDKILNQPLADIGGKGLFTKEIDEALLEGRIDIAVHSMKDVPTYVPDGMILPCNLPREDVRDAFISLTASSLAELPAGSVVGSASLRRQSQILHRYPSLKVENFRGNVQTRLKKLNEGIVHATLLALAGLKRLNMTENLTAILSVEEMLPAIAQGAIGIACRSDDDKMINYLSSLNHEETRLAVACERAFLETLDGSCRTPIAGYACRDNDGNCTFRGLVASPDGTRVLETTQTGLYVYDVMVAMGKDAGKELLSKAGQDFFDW

NCc1[nH]cc(CCC(=O)O)c1CC(=O)O [porphobilinogen]
in vitro PBGD activity assay (method of Lee et al. 1992): in vitro analysis showed that the prokaryotic-expressed AbHEMC protein had PBGD activity
